Blank lines part the entries; values can stand above or below the molecule they belong to.
Experiments:
[1] = target: T1, Malonyl-CoA decarboxylase, mitochondrial (Homo sapiens, UniProt O95822); assay: Inhibition of human MCD
T1 sequence (O95822 whole entry): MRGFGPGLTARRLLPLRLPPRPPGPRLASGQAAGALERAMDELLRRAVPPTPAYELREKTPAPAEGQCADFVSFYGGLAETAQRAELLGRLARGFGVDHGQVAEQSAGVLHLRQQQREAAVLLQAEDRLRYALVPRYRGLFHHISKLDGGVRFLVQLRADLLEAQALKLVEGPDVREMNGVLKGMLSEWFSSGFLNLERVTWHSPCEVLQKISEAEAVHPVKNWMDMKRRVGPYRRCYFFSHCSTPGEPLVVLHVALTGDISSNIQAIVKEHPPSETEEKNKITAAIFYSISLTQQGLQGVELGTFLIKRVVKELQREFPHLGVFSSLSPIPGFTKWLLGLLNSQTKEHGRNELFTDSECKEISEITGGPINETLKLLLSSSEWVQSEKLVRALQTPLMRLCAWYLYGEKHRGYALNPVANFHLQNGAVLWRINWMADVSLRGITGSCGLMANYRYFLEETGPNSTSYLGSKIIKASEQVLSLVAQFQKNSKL

[2] = target: T2, Malonyl-CoA decarboxylase, mitochondrial (Mus musculus, UniProt Q99J39); assay: Inhibition of MCD in mouse hepatocytes by whole cell assay; type: cell-based, Hepatocyte
T2 sequence (Q99J39 whole entry): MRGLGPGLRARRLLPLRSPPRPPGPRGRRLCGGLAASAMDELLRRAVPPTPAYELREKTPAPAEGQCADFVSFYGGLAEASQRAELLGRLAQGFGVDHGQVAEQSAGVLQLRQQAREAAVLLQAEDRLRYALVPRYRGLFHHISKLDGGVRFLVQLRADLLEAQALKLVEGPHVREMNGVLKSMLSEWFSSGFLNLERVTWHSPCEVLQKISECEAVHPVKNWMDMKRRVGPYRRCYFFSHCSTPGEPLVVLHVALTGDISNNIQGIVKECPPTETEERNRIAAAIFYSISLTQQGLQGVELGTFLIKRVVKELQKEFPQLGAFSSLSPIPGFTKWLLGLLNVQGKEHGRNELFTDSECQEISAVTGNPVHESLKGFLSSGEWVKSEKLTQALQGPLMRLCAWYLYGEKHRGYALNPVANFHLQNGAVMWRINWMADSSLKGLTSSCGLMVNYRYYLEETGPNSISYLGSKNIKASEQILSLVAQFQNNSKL

[3] = test system: Mus musculus; assay: Antiobesity activity in C57B6N mouse assessed as change in body weight at 30 mg/kg, po; type: functional
[4] = test system: Mus musculus; assay: Antiobesity activity in C57B6N mouse assessed as change in body weight at 100 mg/kg, po; type: functional
[5] = test system: Mus musculus; assay: Antiobesity activity in C57B6N mouse assessed as change in chronic food intake at 30 mg/kg, po; type: functional
[6] = test system: Mus musculus; assay: Antiobesity activity in C57B6N mouse assessed as change in chronic food intake at 100 mg/kg, po; type: functional
[7] = test system: Mus musculus; assay: Antiobesity activity in C57B6N mouse assessed as change in hyphalamic malonyl-coA level at 30 mg/kg, po; type: functional
[8] = test system: Mus musculus; assay: Antiobesity activity in C57B6N mouse assessed as change in hyphalamic malonyl-coA level at 100 mg/kg, po; type: functional
[9] = test system: Mus musculus; assay: Antidiabetic activity in C57B6N mouse assessed as blood glucose correction at 30 mg/kg, po; type: functional
[10] = test system: Mus musculus; assay: Antidiabetic activity in C57B6N mouse assessed as decrease in beta-hydroxybutyrate at 30 mg/kg, po; type: functional; design: scale not given: the % may be the effect or the level left
[11] = test system: Mus musculus; assay: Antidiabetic activity in C57B6N mouse assessed as blood glucose correction at 3 mg/kg, po; type: functional
[12] = test system: Mus musculus; assay: Antidiabetic activity in C57B6N mouse assessed as blood glucose correction at 10 mg/kg, po; type: functional
[13] = test system: Mus musculus; assay: Antidiabetic activity in C57B6N mouse assessed as decrease in beta-hydroxybutyrate at 3 mg/kg, po; type: functional; design: scale not given: the % may be the effect or the level left
[14] = test system: Mus musculus; assay: Antidiabetic activity in C57B6N mouse assessed as decrease in beta-hydroxybutyrate at 10 mg/kg, po; type: functional; design: scale not given: the % may be the effect or the level left

IC50 [1]: 13.3 nM
SMILES: Cc1cc(C(O)(C(F)(F)F)C(F)(F)F)ccc1C(Cc1cc[n+]([O-])cc1)c1ccc(OC(F)F)c(OC(F)F)c1 (configuration not stated)

EC50 [2]: > 20000 nM
SMILES: OC(c1cnc(C2CCN(c3ccc(F)cc3)CC2)s1)(C(F)(F)F)C(F)(F)F

EC50 [2]: 2000 nM
SMILES: NC(=O)c1cccc(N2CCC(c3ncc(C(O)(C(F)(F)F)C(F)(F)F)s3)CC2)c1

EC50 [2]: 230 nM
SMILES: O=C(O)c1cccc(C2CCN(c3ncc(C(O)(C(F)(F)F)C(F)(F)F)s3)CC2)c1

EC50 [2]: 950 nM
SMILES: NC(=O)c1cccc(C2CCN(c3ncc(C(O)(C(F)(F)F)C(F)(F)F)s3)CC2)c1

EC50 [2]: 1100 nM
SMILES: NC(=O)C1(c2ccccc2)CCN(c2ncc(C(O)(C(F)(F)F)C(F)(F)F)s2)CC1
Activity [3]: -5.5% | Activity [4]: 14.3% | Activity [5]: -2.4% | Activity [6]: -5.7% | Activity [7]: 29% | Activity [8]: 70% | Activity [9]: 41% | Activity [10]: 60%

EC50 [2]: 640 nM
SMILES: CNC(=O)C1(c2ccccc2)CCN(c2ncc(C(O)(C(F)(F)F)C(F)(F)F)s2)CC1

EC50 [2]: > 20000 nM
SMILES: OC(c1cnc(N2CCN(c3ccc(F)c(F)c3)CC2)s1)(C(F)(F)F)C(F)(F)F

EC50 [2]: 150 nM
SMILES: NC(=O)C1(c2cccc(C(=O)O)c2)CCN(c2ncc(C(O)(C(F)(F)F)C(F)(F)F)s2)CC1

EC50 [2]: 500 nM
SMILES: CS(=O)(=O)NC(=O)C1(c2ccccc2)CCN(c2ncc(C(O)(C(F)(F)F)C(F)(F)F)s2)CC1
Activity [9]: 48% | Activity [11]: 28% | Activity [12]: 53% | Activity [10]: 60% | Activity [13]: -12% | Activity [14]: 53%

EC50 [2]: 1400 nM
SMILES: NC(=O)c1cccc(N2CCN(c3ncc(C(O)(C(F)(F)F)C(F)(F)F)s3)CC2)c1
Activity [3]: -3.3% | Activity [4]: -2.2% | Activity [5]: 0.8% | Activity [6]: 0.8% | Activity [7]: 50% | Activity [8]: 36% | Activity [9]: 32% | Activity [10]: 78%

EC50 [2]: 630 nM
SMILES: CNC(=O)c1cccc(N2CCN(c3ncc(C(O)(C(F)(F)F)C(F)(F)F)s3)CC2)c1
Activity [3]: -2.1% | Activity [4]: 20% | Activity [5]: -1.3% | Activity [6]: -12.4% | Activity [7]: 65% | Activity [8]: 186% | Activity [9]: 30% | Activity [10]: 65%

— ChEMBL document CHEMBL1255206, “Design and synthesis of a new class of malonyl-CoA decarboxylase inhibitors with anti-obesity and anti-diabetic activities” (Bioorg Med Chem Lett, 2010)
